Experimental data taken from patent US11008357B2, “Method for preparing canagliflozin amorphous form” (Zhejiang Huahai Pharmaceutical Co., Ltd., priority 2017, dated 2021).
Like-named read-outs stand apart in the source and are kept apart here.

How the values were obtained:
[1] = stability test conditions not documented in the literature; cited from earlier work
[2] = Stability test of canagliflozin amorphous forms (moisture absorption, crystal transition); assay type: physicochemical; settings: Temperature 25 ± 5° C., Humidity 50-60%, 3 months
Text: In order to illustrate that the canagliflozin amorphous form of the present invention is different from the amorphous form prepared by the general amorphous preparation method, the inventors select and compare the amorphous forms obtained by the above-mentioned practical methods, including rapid evaporation of solvent for curing, mixed solvent method and other related methods.

In the case of Cc1ccc([C@@H]2O[C@H](CO)[C@@H](O)[C@H](O)[C@H]2O)cc1Cc1ccc(-c2ccc(F)cc2)s1 [CN103889429 Example 2], the “Crystal transition or not” value [1] is listed as “No” and the “Obvious moisture absorption or not” value [1] is listed as “No obvious”.
In the case of Cc1ccc([C@@H]2O[C@H](CO)[C@@H](O)[C@H](O)[C@H]2O)cc1Cc1ccc(-c2ccc(F)cc2)s1 [CN104119323 Example 1, reference compound], the “Crystal transition or not” value [2] is reported as “No” and the “Obvious moisture absorption or not” value [2] is reported as “No obvious”.
